Measurements published in patent US6726911B1, “Biologically active compounds of Ganoderma pfeifferi DSM 13239” (Ganomycin, priority 1999, dated 2004).
Read-outs that look alike come from different tables or passages of the source.

Assays:
influenza virus type A = experiment: antiviral activity
CD-14 receptor = target: T1, CD-14 receptor (Homo sapiens, UniProt P08571); experiment: serum-mediated binding of FITC-labeled lipopolysaccharide to CD-14 transfected Chinese hamster ovary cell lines; format: cell-based; conditions: CD14+ cells
T1 construct: expressed in transfected cells; host or cells: Chinese hamster ovary cell lines
T1 sequence (P08571 20-345): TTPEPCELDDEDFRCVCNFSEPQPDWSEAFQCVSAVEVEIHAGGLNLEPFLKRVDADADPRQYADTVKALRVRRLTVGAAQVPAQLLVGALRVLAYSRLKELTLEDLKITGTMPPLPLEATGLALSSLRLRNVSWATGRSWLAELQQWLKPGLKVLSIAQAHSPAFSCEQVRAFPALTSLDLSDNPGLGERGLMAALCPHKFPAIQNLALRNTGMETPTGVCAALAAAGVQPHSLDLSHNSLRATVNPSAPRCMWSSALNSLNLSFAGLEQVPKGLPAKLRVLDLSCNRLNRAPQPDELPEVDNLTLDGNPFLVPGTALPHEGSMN
Method: Methods: The test was performed according to Grunwald (CD-14 als Rezeptor für Endotoxin: in vitro-Untersuchungen zu Bindungsmodalitaten von LPS und zur Beeinflussung der Expression. Dissertation Ernst-Moritz-Arndt-Universität Greifswald 1993). For the tests, cell lines from ovaries of Chinese hamsters were used which express the CD-14 receptor after transfection of the CD-14 gene. The lipopolysaccharide was labeled with FITC so that the binding to the receptor could be determined by measuring the fluorescence intensity.

[1] = test system: Aeromonas hydrophila DSM 30019; experiment: agar diffusion test on fish-pathogenic bacteria; format: cell-based
[2] = test system: Vibrio anguillarum ATCC 1188; experiment: agar diffusion test on fish-pathogenic bacteria; format: cell-based
[3] = test system: Aeromonas salmonicida subsp. salmonicida 67 A 1; experiment: agar diffusion test on fish-pathogenic bacteria; format: cell-based
[4] = test system: oxygen free-radical release; experiment: free-radical scavenging by luminol chemiluminescence in zymosan-stimulated human blood; format: cell-based; conditions: 10 μg/ml
Method: The proof was established as follows:
A: […] was preincubated with […] of PBS+luminol (0.33 mM final) at 37° C. for 20 min.
B: 30 μl of human blood was preincubated with […] of PBS+luminol (0.33 mM final) and […] of substance dilution at 37° C. for 20 min.
To A was pipetted 20 μl of a 1:100 dilution of the extract of Example 11 and 20 μl of zymosan (10 mg/ml).
To B was pipetted 20 μl of zymosan (10 mg/ml).
As a control, PBS was used instead of zymosan as a stimulator with and without substance in charges A and B. After intensive mixing, the kinetics of the luminescence were measured over 60 min. The examinations were performed on two different days with blood from two different blood donors.
Methods: The free-radical scavenging function of the active substances of formula 1, ganomycin A and ganomycin B, broadens the possibilities of medicinal use. The proof was established as in the examination of the extracts according to Example 48.

S. haemolyticus = experiment: agar diffusion test on pathogens of Gram-positive infections; conditions: S. haemolyticus (multiresistant strains isolated from patient material)
Method: (§1) In the first stage of examination, the agar diffusion test was employed. The extracts and substances to be tested were respectively dissolved using appropriate solvents (dichloromethane, methanol and water) and applied to filter paper sheets in different concentrations. Comparative sheets soaked with 25 μl of the corresponding solvent served as a control. Ampicillin (10 μg/sheet) was employed as a reference substance. The dried filter paper sheets were finally placed onto agar plates. For the basic screening, nutrient agar II (VEB Immunpraparate, Berlin, Germany) was employed, and for the examination on strains isolated from patient material, Mueller-Hinton II agar (Becton Dickinson Microbiology Systems, Cockeysville, USA) was employed. Using an inoculation wire loop, a pinheadful of test germ culture was suspended in 3 ml of a sterile 0.90% NaCl solution. Subsequently, 200 μl of the germ suspension was added to 20 ml of sterile, liquefied and slightly warm nutrient agar and cast into Petri dishes having a diameter of 10 cm. After placing the sheets onto the congealed agar, the plates were preincubated at 8° C. for about 2 to 3 hours, followed by incubation of the plates in an incubator at 37° C. for 24 hours. Micrococcus flavus was an exception. This culture was stored only at room temperature because the germ reaches its optimum growth at 20° C. […]

Enterococci = experiment: agar diffusion test on pathogens of Gram-positive infections; conditions: Enterococci (multiresistant strains isolated from patient material)
Method: as §1

S. aureus = experiment: agar diffusion test
Method: In the first stage of examination, the agar diffusion test was employed. The extracts and substances to be tested were respectively dissolved using appropriate solvents (dichloromethane, methanol and water) and applied to filter paper sheets in different concentrations. Comparative sheets soaked with 25 μl of the corresponding solvent served as a control. Ampicillin (10 μg/sheet) was employed as a reference substance. The dried filter paper sheets were finally placed onto agar plates. For the basic screening, nutrient agar II (VEB Immunpraparate, Berlin, Germany) was employed, and for the examination on strains isolated from patient material, Mueller-Hinton II agar (Becton Dickinson Microbiology Systems, Cockeysville, USA) was employed. Using an inoculation wire loop, a pinheadful of test germ culture was suspended in 3 ml of a sterile 0.90% NaCl solution. Subsequently, 200 μl of the germ suspension was added to 20 ml of sterile, liquefied and slightly warm nutrient agar and cast into Petri dishes having a diameter of 10 cm. After placing the sheets onto the congealed agar, the plates were preincubated at 8° C. for about 2 to 3 hours, followed by incubation of the plates in an incubator at 37° C. for 24 hours. Micrococcus flavus was an exception. This culture was stored only at room temperature because the germ reaches its optimum growth at 20° C.
The evaluation of the plates was effected by measuring the diameters of the inhibition halos. All operations were done under aseptic conditions.

[5] = test system: human hepatoma cells (PLC/PRF/5 cells); conditions: Hager, reference 66; cited from earlier work
KB cells = conditions: Hager, reference 66; cited from earlier work
[6] = test system: peritoneal mast cells of rats; conditions: 2 mg/ml; Hager, reference 31; cited from earlier work
[7] = target: angiotensin-converting enzyme (Homo sapiens, UniProt P12821); conditions: in vitro; Hager, reference 39; cited from earlier work
Chain of angiotensin-converting enzyme (P12821 30-1306, species assumed): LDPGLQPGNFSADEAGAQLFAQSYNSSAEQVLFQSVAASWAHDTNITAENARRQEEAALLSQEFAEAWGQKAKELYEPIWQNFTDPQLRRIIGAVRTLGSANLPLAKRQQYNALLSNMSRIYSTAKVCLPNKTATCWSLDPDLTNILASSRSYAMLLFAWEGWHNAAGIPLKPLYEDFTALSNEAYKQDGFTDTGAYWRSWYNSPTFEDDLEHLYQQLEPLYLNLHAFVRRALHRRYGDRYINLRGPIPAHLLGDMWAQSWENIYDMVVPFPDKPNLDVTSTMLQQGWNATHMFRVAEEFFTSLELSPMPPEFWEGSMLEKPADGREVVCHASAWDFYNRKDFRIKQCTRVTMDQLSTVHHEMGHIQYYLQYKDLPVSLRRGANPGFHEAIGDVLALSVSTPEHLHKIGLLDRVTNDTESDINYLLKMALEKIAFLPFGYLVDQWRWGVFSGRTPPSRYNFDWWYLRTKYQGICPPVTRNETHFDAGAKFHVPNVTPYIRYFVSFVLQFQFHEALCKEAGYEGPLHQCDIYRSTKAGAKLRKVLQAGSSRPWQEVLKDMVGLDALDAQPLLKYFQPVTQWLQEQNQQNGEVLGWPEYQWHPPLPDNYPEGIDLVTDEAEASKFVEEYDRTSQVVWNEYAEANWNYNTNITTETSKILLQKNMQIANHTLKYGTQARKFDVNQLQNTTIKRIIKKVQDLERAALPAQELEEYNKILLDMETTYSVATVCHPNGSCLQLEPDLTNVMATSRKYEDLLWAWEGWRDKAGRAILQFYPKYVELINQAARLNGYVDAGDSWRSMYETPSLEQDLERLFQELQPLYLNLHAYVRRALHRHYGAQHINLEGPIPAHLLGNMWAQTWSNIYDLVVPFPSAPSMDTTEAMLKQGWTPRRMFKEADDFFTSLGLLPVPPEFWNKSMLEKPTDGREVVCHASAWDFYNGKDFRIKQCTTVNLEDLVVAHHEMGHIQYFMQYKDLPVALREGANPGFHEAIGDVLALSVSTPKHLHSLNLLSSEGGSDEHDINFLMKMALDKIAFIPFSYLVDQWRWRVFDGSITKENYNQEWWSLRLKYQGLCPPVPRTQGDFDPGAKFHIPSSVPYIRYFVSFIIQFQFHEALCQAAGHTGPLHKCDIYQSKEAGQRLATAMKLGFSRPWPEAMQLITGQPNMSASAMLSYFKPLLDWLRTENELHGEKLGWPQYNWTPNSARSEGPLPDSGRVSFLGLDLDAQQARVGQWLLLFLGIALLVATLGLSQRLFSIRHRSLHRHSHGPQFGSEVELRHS

Method for S. epidermidis: Methods: Extracts according to Example 9 in a concentration of 2 mg/l were dropped onto standardized test plates for the resistance assay for the commercially available antibiotics amicazin, trimethroprim and fusidinic acid (Sensi-Disk Antibiotics Test Plates, Becton Dickinson Microbiology Systems, Cockeysville, USA). The antibacterial activity was determined according to Example 1 on multiresistant coagulase-negative staphylococci isolated from patient material.

Compound: C/C(=C\CC[C@@H](C)[C@H]1CC[C@@]2(C)C3=C(CC[C@]12C)[C@@]1(C)CC[C@H](O)C(C)(C)[C@@H]1CC3=O)CO [Ganoderone B, 3,26-dihydroxylanosta-8,24-diene-7-one]
- antiviral activity against influenza virus type A (influenza virus type A): has antiviral activity
- inhibition of the lipopolysaccharide binding (in words) (CD-14 receptor): inhibits

Compound: CC(=CCCC(C)=CCCC(=CCc1cc(O)ccc1O)C(=O)O)CO [Ganomycin A, 2-[2-(2,5-dihydroxyphenyl)ethylidene]-11-hydroxy-6,10-dimethylundeca-5,9-dienic acid]
- Diameter of inhibition halo [1]: 15 mm
- Diameter of inhibition halo [2]: 10 mm
- Diameter of inhibition halo [3]: 10 mm
- inhibition of the lipopolysaccharide binding (in words) (CD-14 receptor): causes inhibition
- luminol-induced and spontaneous oxygen free-radical release [4]: inhibit

Compound: CC(C)=CCCC(C)=CCCC(=CCc1cc(O)ccc1O)C(=O)O [Ganomycin B, 2-[2-(2,5-dihydroxyphenyl)ethylidene]-6,10-dimethylundeca-5,9-dienic acid]
- Inhibition halo (S. haemolyticus): 12-16 mm
- Diameter of inhibition halo [1]: 17 mm
- Inhibition halo (S. epidermidis; S. epidermidis 125, extract 2 mg/l dropped onto antibiotic test plates): 16 mm
- Inhibition halo (S. epidermidis; S. epidermidis 473, extract 2 mg/l dropped onto antibiotic test plates): 20 mm
- Inhibition halo (S. epidermidis; S. epidermidis 847, extract 2 mg/l dropped onto antibiotic test plates): 16 mm
- Inhibition halo (S. epidermidis; S. epidermidis (multiresistant strains isolated from patient material)): 16-20 mm
- Diameter of inhibition halo [2]: 26 mm
- Diameter of inhibition halo [3]: 12 mm
- Inhibition halo (Enterococci): 10-14 mm
- Inhibition halo (S. aureus; S. aureus (MRSA strains isolated from patient material)): 10-16 mm
- Inhibition halo (S. aureus; S. aureus ATCC 6538): 30 mm
- Inhibition halo (S. aureus; S. aureus ATCC 25923): 25 mm
- Inhibition halo (S. aureus; S. aureus ATCC 29213): 22 mm
- Inhibition halo (S. aureus; S. aureus reference strain “North-German Strain” (Smith Kline Beecham)): 16 mm
- inhibition of the lipopolysaccharide binding (in words) (CD-14 receptor): causes inhibition
- luminol-induced and spontaneous oxygen free-radical release [4]: inhibit

Compound: CC(C)[C@@H](C)C=C[C@@H](C)[C@H]1CC[C@H]2C3=CCC4C[C@H](O)[C@@H](O)C[C@]4(C)[C@@]3(O)CC[C@]12C (stereo partly drawn) [ergosta-7,22-diene-2β,3α,9α-triol]
- ED50 for the hepatoma cells [5]: 1170 µg/mL
- ED50 for KB cells (KB cells): 0.89 µg/mL

Compound: CC(CC(=O)C[C@@H](C)[C@H]1CC(=O)[C@@]2(C)C3=C(C(=O)C[C@]12C)[C@@]1(C)CCC(=O)C(C)(C)[C@@H]1C[C@@H]3O)C(=O)O (some centres unmarked) [ganoderic acid D]
- reduction of 48/80-induced histamine release [6]: 80%
- reduction of Con-A-induced histamine release [6]: 80%

Compound: CC(=O)O[C@@H]1C(=O)C2=C(C(=O)C[C@H]3C(C)(C)C(=O)CC[C@]23C)[C@]2(C)C(=O)C[C@H]([C@H](C)CC(=O)CC(C)C(=O)O)[C@@]12C (some centres unmarked) [ganoderic acid F]
- IC50 [7]: 4.7 µM

Compound: ganoderaldehyde A
- ED50 for the hepatoma cells [5]: 10.99 µg/mL
- ED50 for KB cells (KB cells): 9.75 µg/mL

Compound: ganoderic acid C
- reduction of 48/80-induced histamine release [6]: 70%
- reduction of Con-A-induced histamine release [6]: 85%
